US20250271426A1, “REDUCTION OF BITTER TASTE OF ACTIVE PHARMACEUTICAL INGREDIENTS AND RELATED ASSAYS AND SCREENING METHODS” (Firmenich Incorporated, priority 2022, published 2025)

Tests used:
Test in all cases: FLIPR calcium assay, cells with promiscuous G protein transfected with bitter receptor cDNA
Assay type in all cases: cell-based
Conditions in all cases: responsive if cellular response of >10% over baseline, Fluo4-AM
[1] = target: T1, T2R receptor SEQ ID NO: 3 (S3) (Homo sapiens, UniProt Q9NYW0, T156M)
T1 construct: expressed in transfected cells; host or cells: cells expressing a promiscuous G protein (e.g., G16g44)
T1 sequence (Q9NYW0 1-307 T156M): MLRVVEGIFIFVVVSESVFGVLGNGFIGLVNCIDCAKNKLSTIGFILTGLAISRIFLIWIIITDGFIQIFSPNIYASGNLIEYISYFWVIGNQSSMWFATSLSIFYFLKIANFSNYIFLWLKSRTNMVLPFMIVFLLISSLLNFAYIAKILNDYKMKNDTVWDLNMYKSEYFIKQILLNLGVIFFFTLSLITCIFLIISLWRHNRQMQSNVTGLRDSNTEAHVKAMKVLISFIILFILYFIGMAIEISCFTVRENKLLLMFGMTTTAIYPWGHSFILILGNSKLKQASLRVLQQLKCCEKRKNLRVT
Procedure: (§1) Cells expressing a promiscuous G protein (e.g., G16g44) were transfected with vectors encoding 22 functional bitter receptor cDNAs, with one receptor per transfection. The cells were transfected directly in 384-well format high-density plates and incubated for 28 hours. Later, cells were loaded with the Ca-specific dye Fluo4-AM. After an incubation of 60 minutes, excess dye is washed off, and cells are stimulated with respective bitter agonists while simultaneously recording changes in intracellular fluorescence using a FLIPR instrument.
(§2) The above protocol was carried out using 94 different active pharmaceutical ingredients (APIs) that span a wide range of different APIs having a diversity of chemical structures. A particular T2R receptor was identified as being responsive to a particular API if it triggered a cellular response of >10% over baseline.

[2] = target: T2, T2R receptor SEQ ID NO: 4 (S4) (Homo sapiens, UniProt Q9NYV8)
T2 construct: expressed in transfected cells; host or cells: cells expressing a promiscuous G protein (e.g., G16g44)
T2 sequence (Q9NYV8 1-317): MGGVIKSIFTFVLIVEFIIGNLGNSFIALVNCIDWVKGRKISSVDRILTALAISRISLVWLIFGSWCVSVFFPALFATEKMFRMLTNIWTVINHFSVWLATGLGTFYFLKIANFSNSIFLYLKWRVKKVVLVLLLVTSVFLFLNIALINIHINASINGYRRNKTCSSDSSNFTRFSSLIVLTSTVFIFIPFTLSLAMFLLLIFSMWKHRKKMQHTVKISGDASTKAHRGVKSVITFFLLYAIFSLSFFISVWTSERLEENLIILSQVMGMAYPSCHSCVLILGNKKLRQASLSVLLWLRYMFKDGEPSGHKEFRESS
Procedure: as §1, §2

[3] = target: T3, T2R receptor SEQ ID NO: 6 (S6) (Homo sapiens, UniProt P59540)
T3 construct: expressed in transfected cells; host or cells: cells expressing a promiscuous G protein (e.g., G16g44)
T3 sequence (P59540 1-309): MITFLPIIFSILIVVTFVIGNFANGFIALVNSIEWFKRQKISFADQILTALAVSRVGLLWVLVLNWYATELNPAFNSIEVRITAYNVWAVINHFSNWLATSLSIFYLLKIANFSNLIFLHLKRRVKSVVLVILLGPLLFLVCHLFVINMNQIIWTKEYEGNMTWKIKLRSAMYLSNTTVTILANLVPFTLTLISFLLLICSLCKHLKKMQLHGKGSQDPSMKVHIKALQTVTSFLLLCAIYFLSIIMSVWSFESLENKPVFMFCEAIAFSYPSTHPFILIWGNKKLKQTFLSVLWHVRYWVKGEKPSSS
Procedure: as §1, §2

[4] = target: T4, T2R receptor SEQ ID NO: 1 (S1) (Homo sapiens, UniProt Q9NYW7)
T4 construct: expressed in transfected cells; host or cells: cells expressing a promiscuous G protein (e.g., G16g44)
T4 sequence (Q9NYW7 1-299): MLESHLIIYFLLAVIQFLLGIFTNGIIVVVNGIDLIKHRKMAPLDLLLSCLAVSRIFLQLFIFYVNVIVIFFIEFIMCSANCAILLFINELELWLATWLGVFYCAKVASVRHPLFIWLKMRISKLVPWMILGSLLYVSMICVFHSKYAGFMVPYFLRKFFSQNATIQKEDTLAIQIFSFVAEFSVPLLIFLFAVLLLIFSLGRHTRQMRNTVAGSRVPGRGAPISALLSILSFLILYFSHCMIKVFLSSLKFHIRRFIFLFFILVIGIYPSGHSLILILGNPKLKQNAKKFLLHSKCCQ
Procedure: as §1, §2

| Structure (SMILES) | S3 positive response of T2R receptor to API [1] | S4 positive response of T2R receptor to API [2] | S6 positive response of T2R receptor to API [3] | further results |
| --- | --- | --- | --- | --- |
| O=C(CCCN1CCC(O)(c2ccc(Cl)cc2)CC1)c1ccc(F)cc1 [Haloperidol] | + (a “+” to indicate whether a particular T2R receptor showed a positive response to a particular API) | + (a “+” to indicate whether a particular T2R receptor showed a positive response to a particular API) |  |  |
| CCCC(C)(COC(N)=O)COC(=O)NC(C)C (stereo not drawn) [Carisoprodol] |  | + (a “+” to indicate whether a particular T2R receptor showed a positive response to a particular API) |  |  |
| O=C(O)c1cccnc1Nc1cccc(C(F)(F)F)c1 [Niflumic Acid] |  | + (a “+” to indicate whether a particular T2R receptor showed a positive response to a particular API) |  |  |
| CCN1CCN(Cc2ccc(Nc3ncc(F)c(-c4cc(F)c5nc(C)n(C(C)C)c5c4)n3)nc2)CC1 [Abamaciclib] |  |  | + (a “+” to indicate whether a particular T2R receptor showed a positive response to a particular API) |  |
| COc1ccc(C(CN(C)C)C2(O)CCCCC2)cc1 (stereo not drawn) [Venlafaxine] | + (a “+” to indicate whether a particular T2R receptor showed a positive response to a particular API) |  | + (a “+” to indicate whether a particular T2R receptor showed a positive response to a particular API) |  |
| O=C(O)c1cn(C2CC2)c2cc(N3CCNCC3)c(F)cc2c1=O [Ciprofloxacin] |  |  | + (a “+” to indicate whether a particular T2R receptor showed a positive response to a particular API) |  |
| COc1ccc(-n2nc(C(N)=O)c3c2C(=O)N(c2ccc(N4CCCCC4=O)cc2)CC3)cc1 [Apixaban] | + (a “+” to indicate whether a particular T2R receptor showed a positive response to a particular API) |  |  |  |
| NS(=O)(=O)c1cc2c(cc1Cl)NCNS2(=O)=O [Hydrochlorothiazide] | + (a “+” to indicate whether a particular T2R receptor showed a positive response to a particular API) |  | + (a “+” to indicate whether a particular T2R receptor showed a positive response to a particular API) |  |
| CCC1=C(C)CN(C(=O)NCCc2ccc(S(=O)(=O)NC(=O)N[C@H]3CC[C@H](C)CC3)cc2)C1=O [Glimepiride] |  | + (a “+” to indicate whether a particular T2R receptor showed a positive response to a particular API) |  |  |
| Nc1ccc(S(=O)(=O)c2ccc(N)cc2)cc1 [Dapsone] | + (a “+” to indicate whether a particular T2R receptor showed a positive response to a particular API) |  |  |  |
| Cn1cnc([N+](=O)[O-])c1Sc1ncnc2nc[nH]c12 [Azathioprine] | + (a “+” to indicate whether a particular T2R receptor showed a positive response to a particular API) |  | + (a “+” to indicate whether a particular T2R receptor showed a positive response to a particular API) |  |
| COCCCC/C(=N\OCCN)c1ccc(C(F)(F)F)cc1 [Fluvoxamine] |  |  |  | S1 positive response of T2R receptor to API [4]: + (a “+” to indicate whether a particular T2R receptor showed a positive response to a particular API) |
| CCCCc1ncc(/C=C(\Cc2cccs2)C(=O)O)n1Cc1ccc(C(=O)O)cc1 [Eprosartan] |  |  |  | S1 positive response of T2R receptor to API [4]: + (a “+” to indicate whether a particular T2R receptor showed a positive response to a particular API) |
| CCn1cc(C(=O)O)c(=O)c2cc(F)c(N3CCNCC3)nc21 [Enoxacin] |  |  | + (a “+” to indicate whether a particular T2R receptor showed a positive response to a particular API) |  |
| c1ccc(CC2=NCCN2)cc1 [Tolazoline] | + (a “+” to indicate whether a particular T2R receptor showed a positive response to a particular API) |  | + (a “+” to indicate whether a particular T2R receptor showed a positive response to a particular API) |  |
| C=CCC1(C(C)CCC)C(=O)NC(=O)NC1=O (stereo not drawn) [Secobarbital Sodium] |  | + (a “+” to indicate whether a particular T2R receptor showed a positive response to a particular API) |  |  |
| CN1CCCC(n2nc(Cc3ccc(Cl)cc3)c3ccccc3c2=O)CC1 (stereo not drawn) [Azelastine] | + (a “+” to indicate whether a particular T2R receptor showed a positive response to a particular API) |  | + (a “+” to indicate whether a particular T2R receptor showed a positive response to a particular API) |  |
| Cc1cccc(Nc2ccccc2C(=O)O)c1C [Mefenamic Acid] |  | + (a “+” to indicate whether a particular T2R receptor showed a positive response to a particular API) |  |  |
| Clc1ccc(COC(Cn2ccnc2)c2ccc(Cl)cc2Cl)c(Cl)c1 (stereo not drawn) [Micronazole] |  | + (a “+” to indicate whether a particular T2R receptor showed a positive response to a particular API) |  |  |
| C[C@]12CCC(=O)C=C1CC[C@@H]1[C@@H]2[C@@H](O)C[C@@]2(C)[C@H]1CC[C@]2(O)C(=O)CO [Hydrocortisone] |  |  | + (a “+” to indicate whether a particular T2R receptor showed a positive response to a particular API) |  |
| CC1(C)S[C@@H]2[C@H](NC(=O)[C@H](N)c3ccc(O)cc3)C(=O)N2[C@H]1C(=O)O [Amoxicillin] |  |  |  | S1 positive response of T2R receptor to API [4]: + (a “+” to indicate whether a particular T2R receptor showed a positive response to a particular API) |
| O=C(O)c1ccccc1Nc1cccc(C(F)(F)F)c1 [Flufenamic Acid] |  | + (a “+” to indicate whether a particular T2R receptor showed a positive response to a particular API) |  |  |
| O=C(O)Cc1ccccc1Nc1c(Cl)cccc1Cl [Diclofenac] |  | + (a “+” to indicate whether a particular T2R receptor showed a positive response to a particular API) |  |  |
| CN1CCC(C(=O)c2cccc(NC(=O)c3c(F)cc(F)cc3F)n2)CC1 [Lasmitidan] | + (a “+” to indicate whether a particular T2R receptor showed a positive response to a particular API) |  | + (a “+” to indicate whether a particular T2R receptor showed a positive response to a particular API) |  |
| Cn1c(=O)c2c(ncn2C)n(C)c1=O [Caffeine] | + (a “+” to indicate whether a particular T2R receptor showed a positive response to a particular API) | + (a “+” to indicate whether a particular T2R receptor showed a positive response to a particular API) | + (a “+” to indicate whether a particular T2R receptor showed a positive response to a particular API) |  |
| CCN(CC)CC(=O)Nc1c(C)cccc1C [Lidocaine] | + (a “+” to indicate whether a particular T2R receptor showed a positive response to a particular API) | + (a “+” to indicate whether a particular T2R receptor showed a positive response to a particular API) |  |  |
| COc1ccc(Cc2nccc3cc(OC)c(OC)cc23)cc1OC [Papaverine] | + (a “+” to indicate whether a particular T2R receptor showed a positive response to a particular API) | + (a “+” to indicate whether a particular T2R receptor showed a positive response to a particular API) |  |  |
| Cc1cccn2c(=O)c(-c3nnn[nH]3)cnc12 [Pemirolast] |  | + (a “+” to indicate whether a particular T2R receptor showed a positive response to a particular API) |  |  |
